Reference: patent US20220288068A1, “PHARMACEUTICAL PREPARATION” (MERCK PATENT GMBH, priority 2019, published 2022)
Values after ≈ are worked out from the molar mass of the structure shown.

Legend:
[1] = Solubility in oils for SEDDS/SMEDDS; format: physicochemical; conditions: oil or lipid; neutral oil
Description: Due to the relatively high doses necessary for therapeutic effect (approximately 500 mg) and a maximal dose in a self-emulsifying capsule formulation (SEDDS or SMEDDS) of not more than 5 mg, the patient would have to take 100 capsules to achieve the target dose.

[2] = Young's modulus by ultrasound-assisted instrumented single punch press; format: physicochemical; conditions: neat substance, in dependence of solid fraction; FIG. 3 and FIG. 4
Description: Young's modulus is assessed as an indicator for material stiffness (the higher Young's modulus, the more rigid a substance is) whereby its measurement is done in dependence of the solid fraction, which is complementary to porosity (i.e. solid fraction=1−porosity fraction). With this, a solid fraction of 1 indicates no porosity, i.e. no air entrapped in the solid phase. Pharmaceutical relevant solid fractions usually range from 0.75 to 0.85. Porosities have been determined by nitrogen pycnometry.
The measurements to determine the Young's modulus are conducted on a commercially available instrumented single punch press (Romaco Kilian StylOne system) with ultrasound-assisted measurement punches. For this purpose, neat substances are compacted between the upper and the lower punch, leading to densification of the material. The ultrasound velocity in the sample in dependence of the degree of densification is recorded and used for calculation of Youngs modulus of the specific substance.

[3] = Solubility in biorelevant media (FaSSIF, FeSSIF)
Description: Despite such low solubility rather high doses of far above 100 mg are needed for its use in the therapy. […] Accordingly, a pharmaceutical preparation for oral administration must have a high bioavailability to provide the high doses that are needed to achieve the desired therapeutic effect. Otherwise the pharmaceutical preparation would need to have an increased size not usable for its oral administration due to problems with its swallowability.

- solubility [1]: < 5000 µg/mL
- BCS classification ([3]; Amidon et al., 1995): BCS IV
- solubility ([3]; fassif): 43 µg/mL (≈ 87.3 µM)
SMILES: CN1CCC(COc2cnc(-c3cccc(Cn4nc(-c5cccc(C#N)c5)ccc4=O)c3)nc2)CC1 [3-(1-{3-[5-(1-Methyl-piperidin-4-ylmethoxy)-pyrimidin-2-yl]-benzyl}-6-oxo-1,6-dihydro-pyridazin-3-yl)-benzonitrile]
- Young's modulus (elastic properties) [2]: distinct lower Young's moduli compared to widely used pharmaceutical fillers
